Measured values as given in article PMC3853768 (Molecular Pain, 2013).
“Also recorded” adds a separate entry of the source.

Assays:
[1] = tested on: residual ICa; format: cell-based, mouse
[2] = tested on: R-type channels (Cav2.3); format: cell-based, mouse

| Compound | block of residual ICa [1] | effect on ICa of R-type blocker [2] |
| --- | --- | --- |
| [Cl][Cd][Cl] [CdCl2] | residual ICa was blocked |  |
| SNX-482: blocker of R-type channels (Cav2.3), from Peptide Institute (GVDKAGCRYMFGGCSVNDDCCPRLGCHSLFSYCAWDLTFSD; UniProt P56854 1-41, looked up) |  | lack of effect; also recorded: without effect |
